{"source": "patent US20250352517A1", "about": "“THERAPEUTIC OR PROPHYLACTIC AGENT FOR COVID19 WHICH COMPRISES SELENONEINE” (National University Corporation Chiba University, priority 2021, published 2025)", "assay_type_in_all_cases": "biochemical", "key": {"papain": {"molecular_target": "T1, papain (Carica papaya, UniProt P00784)", "T1 construct": "purchased Sigma-Aldrich Japan", "T1 sequence (P00784 134-345)": "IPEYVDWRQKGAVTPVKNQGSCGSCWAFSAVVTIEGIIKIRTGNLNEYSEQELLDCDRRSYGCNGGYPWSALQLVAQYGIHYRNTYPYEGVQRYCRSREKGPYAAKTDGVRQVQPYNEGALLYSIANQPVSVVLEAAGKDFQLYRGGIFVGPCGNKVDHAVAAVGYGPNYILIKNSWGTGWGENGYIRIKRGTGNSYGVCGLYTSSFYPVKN", "experiment": "Inhibitory activity against papain activity (Bz-Arg-MCA fluorescent substrate)", "conditions": "10 μg/ml papain, 15 min preincubation, 37° C., pH 7.4, 10 μM Bz-Arg-MCA; from FIG. 5", "description": "Thereafter, 10 μM Bz-Arg-MCA was added to the reaction solution, and changes in the fluorescence intensity caused by cleavage of Bz-Arg-MCA were observed over time using a fluorometer.\nThereafter, 10 μM Bz-Arg-MCA was added to the reaction solution, and changes in the fluorescence intensity caused by cleavage of Bz-Arg-MCA were measured using a fluorometer, to investigate the inhibitory activity."}, "M^pro of SARS-COV2 [1]": {"molecular_target": "T2, M^pro of SARS-COV2 (Severe acute respiratory syndrome coronavirus 2, UniProt P0DTD1)", "experiment": "Inhibitory activity against M^pro of SARS-COV2 (Ac-Abu-Tle-Leu-Gln-MCA fluorescent substrate), Example 4", "conditions": "2 μg/ml M^pro, 5 min preincubation", "quoted_text": "Thereafter, 10 μM Ac-Abu-Tle-Leu-Gln-MCA was added to the reaction solution, and changes in the fluorescence intensity caused by cleavage of Ac-Abu-Tle-Leu-Gln-MCA were measured using a fluorometer, to investigate the inhibitory activity (FIG. 8). In order to provide a control, changes in the fluorescence intensity were measured under the same conditions except that no inhibitory compound was added.\nAc-Abu-Tle-Leu-Gln-MCA is degraded by M^pro, to produce a fluorescent substance as follows. The production of the fluorescent substance is suppressed by the action of an M^pro-inhibiting compound.\nThereafter, 10 μM Ac-Abu-Tle-Leu-Gln-MCA was added to the reaction solution, and changes in the fluorescence intensity caused by cleavage of Ac-Abu-Tle-Leu-Gln-MCA were measured using a fluorometer to measure the fluorescence intensity, to determine an inhibition curve (FIG. 8)."}, "M^pro of SARS-COV2 [2]": {"molecular_target": "T2, M^pro of SARS-COV2", "experiment": "Inhibitory activity against M^pro of SARS-COV2 at 1 μM test compound, Example 5", "conditions": "2 μg/ml M^pro, measured 1 minute after addition, FIG. 10", "description": "The M^pro was introduced into a plasmid having GST and a histidine tag (FIG. 6), and the resulting plasmid was used for transformation of the E. coli BL21 (DE3) strain. The E. coli BL21 (DE3) strain was cultured at 37° C. to allow expression of M^pro protein. The cell bodies were recovered, and M^pro protein was purified using a binding agent for the histidine tag. The GST and the histidine tag were removed by autodigestion of M^pro and human rhinovirus 3C protease (HRV), and undigested M^pro and HRV were removed using a binding agent for the histidine tag, to obtain a purified sample of M^pro protein. […]\nAfter dissolving 2 μg/ml M^pro and 1 μM test compound in 50 mM Tris-HCl (pH 7.4) kept at 37° C., preincubation was carried out for 5 minutes. Thereafter, 10 μM Ac-Abu-Tle-Leu-Gln-MCA was added to the reaction solution, and the fluorescence intensity resulting from cleavage of Ac-Abu-Tle-Leu-Gln-MCA was measured using a fluorometer, to measure the inhibitory activity (FIG. 10). […] When the fluorescence intensity observed in the case without addition of a test compound was taken as 100, the fluorescence intensity measured 1 minute after the addition of the test compound was about 20% in the case of selenoneine."}}}
{"smiles": "O=c1c2ccccc2[se]n1-c1ccccc1", "note": "[Ebselen, ebselen, reference compound]", "values": [{"measurement": "IC50", "setting": "papain", "value": 5000, "unit": "nM"}]}
{"smiles": "C[N+](C)(C)C(Cc1cnc([SeH])[nH]1)C(=O)O", "note": "[Selenoneine, 2-selenyl-Nα,Nα,Nα-trimethyl-L-histidine]", "values": [{"measurement": "IC50", "setting": "papain", "value": 250, "unit": "nM"}, {"measurement": "IC50", "setting": "M^pro of SARS-COV2 [1]; 37° C., pH 7.4, 10 μM Ac-Abu-Tle-Leu-Gln-MCA, read-out: IC50 value calculated from the regression curve", "value": 540, "unit": "nM"}, {"measurement": "changes in the fluorescence intensity compared with control without inhibitory compound", "setting": "M^pro of SARS-COV2 [1]; 5 μM compound, FIG. 8", "value": "lower than that in the case where no inhibitory compound was added"}, {"measurement": "fluorescence intensity (case without test compound taken as 100)", "setting": "M^pro of SARS-COV2 [2]", "value": "about 20%"}]}
